# Results published in patent US6458585B1, “Cytokine-free culture of dendritic cells” (Nexell Therapeutics Inc., priority 1996, dated 2002).
# How the values were obtained:
# Assay type in all cases: cell-based, human
# [1] = test system: Bulk PBMNC; assay: Morphologically identified dendritic cells in bulk PBMNC cultures with non-cytokine additives
# Procedure: (§1) Cytofunnels were attached to microscope slides. 50,000 to 100,000 cells were removed from each culture and resuspended in approximately 100 to 200 ul of PBS-CMF. Slides were placed in the Cytospin® centrifuge and spun at 100 rpm for 4 min. Cytofunnels were removed from the slides and the slides were air dried for 1 minute. Ten drops of Wright-Geimsa stain were placed onto each slide and allowed to fix for 1 to 2 minutes. Ten drops of water were added to each slide and allowed to sit for 2 to 4 minutes. The slides were rinsed and air dried.
# (§2) Reading of Cytospin Slides: Slides were read under phase contrast microscopy, 40× and 60× oil magnification. One hundred cells were identified and characterized morphologically as either dendritic cells or non-dendritic cells (lymphocytes and monocyte, or CD34+-derived cells in those cases). Digital images were taken using a color monitor and color video printer.
# Culture of Bulk PBMNC: PBMNC cells were cultured in X-VIVO 15™ supplemented with 2 mM L- glutamine. Cultures were initiated at 5×^05 cells/ml in PL2417 gas-permeable containers (20 ml). GM-CSF and IL-4 were added to the cultures at final concentrations of 50 ng/ml and 1000 U/ml or non-cytokine additives such as Vitamin D3 at 2.5 uM, Vitamin E at 0.1%, Linoleic Acid at 5 ug/ml, or Ca++ Ionophore at 10 mM. Addition and subtraction of cells, media, and growth factors to and from PL2417 gas-permeable containers was accomplished by spiking a Sampling Site Coupler into the sample port of the container followed by use of syringes and needles. Cells were cultured in a 5% CO2, ambient O2, 37° C. humidified incubator for 7 days.
# (§3) Cytospin slide preparation, Wright-Geimsa and immunohistochemical staining of the cultured cells were conducted as described in Example 1 and 2 above. Mixed lymphocyte reactions (MLR's) were setup using T cells (responders) and dendritic cell enriched cultures (stimulators) from bulk PBMNC cultures, as described above in Example 1.
# [2] = test system: adherent PBMNC; assay: Cell counts and viability of plastic adherent cells cultured with non-cytokine additives in polystyrene plates; design: % VIABLE: concentration or dose not given beside the values; details: for % VIABLE: propidium iodide
# Procedure: Viability Determination: Prior to acquisition, 5 ul propidium iodide (PI) was added to each tube for use as a viability check. The cells were vortexed and acquired within 10 min of PI addition.
# (§4) Enrichment and Culture of Adherent Cells Using Polystyrene Tissue Culture Plates: PBMNC were resuspended in culture media (X-VIVO 15™+10% autologous serum) at 2×10^6 cells/ml. Cells were placed into 48 well polystyrene tissue culture plates […] and incubated for 2 hours in a 5% CO2, ambient O2, 37° C. humidified incubator. Non-adherent cells were removed from the plates then wells were rinsed with X-VIVO 15™ containing no serum. Cells remaining in the wells were adherent cells. These cells were cultured by adding 2 ml of X-VIVO 15™ to each well plus GM-CSF and IL-4 at final concentrations of 50 ng/ml and 1000 U/ml or the following: cAMP at 0.5 mM, dibutyryl cAMP at 0.1 mM, NaF at 0.25 mM, theophylline at 0.5 mM, PGE at 0.1 mM, Vitamin D3 at 2.5 uM, Vitamin E at 0.1%, Retinoic Acid at 10^−6 M, PMA at 1 pM, Linoleic Acid at 5 ug/ml, or Ca^++ Ionophore at 10 mM. Furthermore, cells were also cultured with the above non-cytokine additives plus GM-CSF at 50 ng/ml. Cells were cultured in a 5% CO2, ambient O2, 37° C. humidified incubator for 7 days.
# (§5) Results: In the set of experiments using plastic adherent cells grown in polystyrene tissue culture plates, a Day 0 analysis of the cells was not performed. However, these cultures were analyzed for the presence of DC on days 4 and 7. Analysis perfomed were cell counts, viability via propidium iodide, morphology under Wright-Geimsa staining, and immunohistochemical staining using an anti-S100 antibody.
# [3] = test system: adherent PBMNC; assay: DC morphology (Wright-Geimsa) of plastic adherent cells cultured with non-cytokine additives
# Procedure: as §1, §2, §4, §3, §5
smiles,measurement,setting,value
CCCCC/C=C\C/C=C\CCCCCCCC(=O)O [Linoleic Acid],% DC,[1]; Day 7,5.00%
same,TOTAL # OF DC,"[1]; Day 7, projected in culture",4.63E+05
same,fold fewer DC (average total number projected in culture) than GM-CSF/IL-4 cultures,[1]; day 7,approximately 4 fold
same,TOTAL CELLS,"[2]; Day 4, with GM-CSF present",1.41E + 05
same,% VIABLE,"[2]; Day 4, with GM-CSF present",96.07%
same,TOTAL CELLS,"[2]; Day 4, without GM-CSF",1.99E + 05
same,% VIABLE,"[2]; Day 4, without GM-CSF",78.84%
same,TOTAL CELLS,"[2]; Day 7, with GM-CSF present",7.85E + 05
same,% VIABLE,"[2]; Day 7, with GM-CSF present",82.63%
same,TOTAL CELLS,"[2]; Day 7, without GM-CSF",1.19E + 05
same,% VIABLE,"[2]; Day 7, without GM-CSF",82.69%
same,% DC,"[3]; Day 4, with GM-CSF present",8.00%
same,% DC,"[3]; Day 4, without GM-CSF",3.00%
same,% DC,"[3]; Day 7, with GM-CSF present",9.00%
same,% DC,"[3]; Day 7, without GM-CSF",6.00%
same,morphologically identified DC,"[3]; day 7, without GM-CSF added to additives",next highest percentages
